# Literature values as cited in US20250325691A1, “HER2-GST-SN-38 COMPLEX, AND PHARMACEUTICAL COMPOSITION COMPRISING SAME FOR PREVENTING OR TREATING PROLIFERATIVE DISEASES” (priority 2022, published 2025).
# Tested on: various cancer cells
# Settings: various cancer cells in vitro; cited from earlier work
smiles,measurement,value
"CCc1c2c(nc3ccc(O)cc13)-c1cc3c(c(=O)n1C2)COC(=O)[C@]3(O)CC [SN-38, 7-ethyl-10-hydroxycamptothecin]","cytotoxic activity, times more potent than irinotecan","up to 1,000 times"
